In patent publication US20140206681A1, “BTK INHIBITORS” (priority 2013, published 2014):

target: T1, BTK enzyme (recombinant full-length BTK, hBTK) (Homo sapiens, UniProt Q06187); assay: BTK enzyme activity assay, LANCE TR-FRET; type: biochemical; details: 50 pM hBTK, 2 μM biotin-A5-peptide, 25 μM ATP; 60 min compound & enzyme incubation; read-out: IC50 BTK activity value
T1 construct: recombinant protein from baculovirus-transfected Sf9 cells: full-length BTK, 6HIS-tag cleaved; 6HIS (cleaved yes); made in house; host or cells: baculovirus-transfected Sf9 cells
T1 sequence (Q06187 whole entry): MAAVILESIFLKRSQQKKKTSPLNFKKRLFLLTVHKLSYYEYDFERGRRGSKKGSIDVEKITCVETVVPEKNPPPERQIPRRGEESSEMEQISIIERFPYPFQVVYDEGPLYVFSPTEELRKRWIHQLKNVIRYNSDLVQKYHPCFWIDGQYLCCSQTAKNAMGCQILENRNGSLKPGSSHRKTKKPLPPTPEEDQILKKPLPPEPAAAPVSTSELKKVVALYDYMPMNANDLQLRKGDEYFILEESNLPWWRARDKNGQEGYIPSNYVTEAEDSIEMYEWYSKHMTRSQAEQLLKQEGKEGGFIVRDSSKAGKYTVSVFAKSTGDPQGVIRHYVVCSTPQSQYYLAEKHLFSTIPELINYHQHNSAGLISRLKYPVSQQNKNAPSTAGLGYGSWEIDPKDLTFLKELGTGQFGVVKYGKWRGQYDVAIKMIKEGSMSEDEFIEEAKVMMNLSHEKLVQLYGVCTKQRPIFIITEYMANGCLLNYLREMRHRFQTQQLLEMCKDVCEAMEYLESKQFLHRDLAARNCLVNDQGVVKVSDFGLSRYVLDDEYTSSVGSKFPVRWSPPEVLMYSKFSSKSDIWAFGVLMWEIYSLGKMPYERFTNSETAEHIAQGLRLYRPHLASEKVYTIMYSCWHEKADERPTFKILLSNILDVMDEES

| IC50 [nM] | SMILES |
| --- | --- |
| 0.13 | Nc1nccn2c([C@@H]3CC[C@H]4CCC(=O)N4C3)nc(-c3ccc(C(=O)Nc4cc(OC5CC5)ccn4)cc3F)c12 [Example 43, 4-{8-amino-3-[(6R,8aS)-3-oxooctahydroindolizin-6-yl]imidazo[1,5-a]pyrazin-1-yl}-N-[4-(cyclopropyloxy)pyridin-2-yl]-3-fluorobenzamide] |
| 9.6 | Nc1nccn2c([C@@H]3CC[C@@H]4CNCC(=O)N4C3)nc(-c3ccc(C(=O)Nc4cc(C(F)(F)F)ccn4)cc3)c12 [Example 54, 4-{8-amino-3-[(7R,9aR)-4-oxooctahydro-2H-pyrido[1,2-a]pyrazin-7-yl]imidazo[1,5-a]pyrazin-1-yl}-N-[4-(trifluoromethyl)pyridin-2-yl]benzamide] |
| 0.3 | Nc1nccn2c([C@@H]3CC[C@H]4COCCN4C3)nc(-c3ccc(C(=O)Nc4cc(C(F)(F)F)ccn4)cc3)c12 [Example 55, 4-{8-amino-3-[(7R,9aS)-octahydropyrido[2,1-c][1,4]oxazin-7-yl]imidazo[1,5-a]pyrazin-1-yl}-N-[4-(trifluoromethyl)pyridin-2-yl]benzamide] |
| 6.7 | C[C@@H]1CC(=O)N2C[C@H](c3nc(-c4ccc(C(=O)Nc5cc(C(F)(F)F)ccn5)cc4)c4c(N)nccn34)CC[C@@H]12 [Example 62, 4-{8-amino-3-[(1R,6R,8aS)-1-methyl-3-oxooctahydroindolizin-6-yl]imidazo[1,5-a]pyrazin-1-yl}-N-[4-(trifluoromethyl)pyridin-2-yl]benzamide] |
| 7.6 | Nc1nccn2c([C@@H]3CC[C@@H]4C[C@H](O)C(=O)N4C3)nc(-c3ccc(C(=O)Nc4cc(C(F)(F)F)ccn4)cc3)c12 [Example 75, 4-{8-amino-3-[(2S,6R,8aR)-2-hydroxy-3-oxooctahydroindolizin-6-yl]imidazo[1,5-a]pyrazin-1-yl}-N-[4-(trifluoromethyl)pyridin-2-yl]benzamide] |
| 0.45 | CC(C)(C(=O)O)N1CC(=O)N2C[C@H](c3nc(-c4ccc(C(=O)Nc5cc(C(F)(F)F)ccn5)cc4)c4c(N)nccn34)CC[C@H]2C1 [Example 86, 2-((7R,9aS)-7-(8-amino-1-(4-((4-(trifluoromethyl)pyridin-2-yl)carbamoyl)phenyl)imidazo[1,5-a]pyrazin-3-yl)-4-oxohexahydro-1H-pyrido[1,2-a]pyrazin-2(6H)-yl)-2-methylpropanoic acid] |
| 11.4 | CC1(C)C[C@@H]2CC[C@@H](c3nc(-c4ccc(C(=O)Nc5cc(C(F)(F)F)ccn5)cc4)c4c(N)nccn34)CN2C1=O [Example 95, 4-{8-amino-3-[(6R,8aS)-2,2-dimethyl-3-oxooctahydroindolizin-6-yl]imidazo[1,5-a]pyrazin-1-yl}-N-[4-(trifluoromethyl)pyridin-2-yl]benzamide] |
| 0.54 | CCOc1cc(C(=O)Nc2cc(C(F)(F)F)ccn2)ccc1-c1nc([C@@H]2CC[C@H]3CC(C)(C)C(=O)N3C2)n2ccnc(N)c12 [Example 113, 4-{8-amino-3-[(6R,8aS)-2,2-dimethyl-3-oxooctahydroindolizin-6-yl]imidazo[1,5-a]pyrazin-1-yl}-3-ethoxy-N-[4-(trifluoromethyl)pyridin-2-yl]benzamide] |
| 12.4 | Cc1c(C(F)(F)F)ccnc1NC(=O)c1ccc(-c2nc([C@@H]3CC[C@H]4CCC(=O)N4C3)n3ccnc(N)c23)cc1 [Example 122, 4-{8-amino-3-[(6R,8aS)-3-oxooctahydroindolizin-6-yl]imidazo[1,5-a]pyrazin-1-yl}-N-[3-methyl-4-(trifluoromethyl)pyridin-2-yl]benzamide] |
| 766 | Nc1nccn2c([C@@H]3CC[C@H]4CCC(=O)N4C3)nc(-c3ccc(C(=O)Nc4cc(C(F)(F)F)cc(C5CCC5)n4)cc3)c12 [Example 126, 4-{8-amino-3-[(6R,8aS)-3-oxooctahydroindolizin-6-yl]limidazo[1,5-a]pyrazin-1-yl}-N-[6-cyclobutyl-4-(trifluoromethyl)pyridin-2-yl]benzamide] |
| 0.55 | CCOc1cc(C(=O)Nc2cc(C(F)(F)F)ccn2)c(F)cc1-c1nc([C@@H]2CC[C@H]3CCC(=O)N3C2)n2c(Cl)cnc(N)c12 [Example 133, 4-{8-amino-5-chloro-3-[(6R,8aS)-3-oxooctahydroindolizin-6-yl]imidazo[1,5-a]pyrazin-1-yl}-5-ethoxy-2-fluoro-N-[4-(trifluoromethyl)pyridin-2-yl]benzamide] |
| 0.22 | COc1cc(C(=O)Nc2cc(C(F)(F)F)ccn2)ccc1-c1nc([C@@H]2CC[C@H]3CCC(=O)N3C2)n2c(Cl)cnc(N)c12 [Example 143, 4-{8-amino-5-chloro-3-[(6R,8aS)-3-oxooctahydroindolizin-6-yl]imidazo[1,5-a]pyrazin-1-yl}-3-methoxy-N-[4-(trifluoromethyl)pyridin-2-yl]benzamide] |
| 0.5 | Nc1ncc(Cl)n2c([C@@H]3CC[C@H]4CCC(=O)N4C3)nc(-c3ccc(C(=O)Nc4cc(C(F)(F)F)ccn4)cc3OC3CC3)c12 [Example 144, 4-{8-amino-5-chloro-3-[(6R,8aS)-3-oxooctahydroindolizin-6-yl]imidazo[1,5-a]pyrazin-1-yl}-3-(cyclopropyloxy)-N-[4-(trifluoromethyl)pyridin-2-yl]benzamide] |
| 0.81 | Cc1cnc(NC(=O)c2ccc(-c3nc([C@@H]4CC[C@H]5CCC(=O)N5C4)n4c(Cl)cnc(N)c34)cc2)s1 [Example 154, 4-{8-amino-5-chloro-3-[(6R,8aS)-3-oxooctahydroindolizin-6-yl]imidazo[1,5-a]pyrazin-1-yl}-N-(5-methyl-1,3-thiazol-2-yl)benzamide] |
| 0.41 | Cn1nc(NC(=O)c2ccc(-c3nc([C@@H]4CC[C@H]5CCC(=O)N5C4)n4ccnc(N)c34)cc2)cc1C(F)(F)F [Example 171, 4-{8-amino-3-[(6R,8aS)-3-oxooctahydroindolizin-6-yl]imidazo[1,5-a]pyrazin-1-yl}-N-[1-methyl-5-(trifluoromethyl)-1H-pyrazol-3-yl]benzamide] |
| 50.7 | Nc1nccn2c([C@@H]3CC[C@H]4CCC(=O)N4C3)nc(-c3ccc(C(=O)Nc4ncc[nH]4)cc3)c12 [Example 172, 4-{8-amino-3-[(6R,8aS)-3-oxooctahydroindolizin-6-yl]imidazo[1,5-a]pyrazin-1-yl}-N-1H-imidazol-2-ylbenzamide] |
| 245 | Nc1nccn2c([C@@H]3CC[C@H]4CCC(=O)N4C3)nc(-c3ccc(C(=O)Nc4cc(C(F)(F)F)on4)cc3)c12 [Example 173, 4-{8-amino-3-[(6R,8aS)-3-oxooctahydroindolizin-6-yl]imidazo[1,5-a]pyrazin-1-yl}-N-[5-(trifluoromethyl)isoxazol-3-yl]benzamide] |
| 241 | Nc1nccn2c([C@@H]3CC[C@H]4CCC(=O)N4C3)nc(-c3ccc(C(=O)Nc4cc(C(F)(F)F)no4)cc3)c12 [Example 174, 4-{8-amino-3-[(6R,8aS)-3-oxooctahydroindolizin-6-yl]imidazo[1,5-a]pyrazin-1-yl}-N-[3-(trifluoromethyl)isoxazol-5-yl]benzamide] |
| 0.93 | Cn1nc(NC(=O)c2ccc(-c3nc([C@@H]4CC[C@H]5CCC(=O)N5C4)n4ccnc(N)c34)cc2)cc1C1CC1 [Example 181, 4-{8-amino-3-[(6R,8aS)-3-oxooctahydroindolizin-6-yl]imidazo[1,5-a]pyrazin-1-yl}-N-(5-cyclopropyl-1-methyl-1H-pyrazol-3-yl)benzamide] |
